Test results taken from patent US5091368A, “Biologically active compounds from blue-green algae” (Harbor Branch Oceanographic Institution, Inc., priority 1990, dated 1992).
In brackets after ≈: the same amount, converted by molar mass.

Legend:
[1] = test system: combined murine splenocyte suspensions from BALB/c and C57BL/6J mice; assay: Mixed lymphocyte reaction (MLR), 3H-thymidine incorporation; assay type: cell-based; conditions: percent of positive control (no drug)
Protocol: 1. Murine splenocyte suspensions were prepared separately from BALB/c and C57BL/6J mice. Spleens were aseptically removed and homogenized in RPMI-1640 tissue culture medium (TCM), supplemented with 10% fetal calf serum, 2% 1-glutamine, 15 mM HEPES, 1% antibiotic-antimycotic solution, and 25 μg/ml gentamicin (GIBCO). The cell concentrations were adjusted to 2.5 ×10^6 cells/ml. Aliquots of each cell population were removed to separate tubes, and the remaining two cell suspensions combined to one tube.
3. A volume of 0.2 ml of the combined splenocyte suspensions was added to triplicate test wells. Positive control wells received combined splenocyte suspensions in the absence of the test extracts/compounds. Negative control wells consisted of separate (not mixed) splenocyte suspensions cultured in the absence of the test compounds.
4. Plates were incubated in 5% CO2 at 37° C. for 86 hours.
5. A volume of 0.05 ml of ^3 H-thymidine (20 μCk/ml) was added to each well, and the plates were incubated in 5% CO2 at 37° C. for an additional 5 hours.
6. The contents of each well of the microtiter plates were harvested onto glass fiber filter strips, and the resulting filter discs placed in scintillation vials to which 2.0 ml of scintillation fluid was added.
7. The amount of incorporated ^3 H-thymidine was determined by counting the vials in a liquid scintillation counter.
8. Triplicate counts were averaged, and the data reported as a percentage of the positive control.

[2] = test system: murine splenocytes from BALB/c mice (lymphoid cells); assay: Lymphocyte viability assay (LCV), MTT; assay type: cell-based; conditions: percent of positive control (no drug)
Protocol: 1. Extra and compounds were similarly tested in parallel with the MLR to determine their toxic effects on lymphoid cells using the lymphocyte viability assay (LCV).
3. Murine splenocyte suspensions were prepared from BALB/c mice. Spleens were aseptically removed and homogenized in RPMI-1640 tissue culture medium (TCM), supplemented with 10% fetal calf serum, 2% 1-glutamine, 15 mM HEPES, 1% antibiotic-antimycotic solution, and 25 μg/ml gentamicin (GIBCO). The cell concentrations were adjusted to 2.5 ×10^6 cells/ml.
4. A volume of 0.2 ml of the splenocyte suspension was added to replicate test wells. Positive control wells received splenocyte suspensions in the absence of the test extracts/compounds.
5. Plates were incubated at 37° C. for 86 hours. At the end of the incubation period, a volume of 75 μl of a 2.0 mg/ml solution of MTT was added to each well, and the plates were returned to the incubator for an additional 5 hours.
6. The supernatants from each microwell were then removed, and a volume of 200 μl of isopropanol was added and the contents mixed.
7. Values were obtained by comparing the optical densities (determined at 570 and 650 nm) of wells containing the test compounds with those of wells containing cells and medium only (positive control). The results are expressed as a percentage of the positive control.
8. Replicate counts were averaged, and the data reported as a percentage of the positive control. An LCV value of less than 60% of the positive control is an indication of cytotoxicity of the test extracts/compounds for lymphoid cells.

[3] = test system: murine P388 leukemia cells; assay: Toxicity against murine P388 leukemia cells (MTT, 48 hour exposure); assay type: cell-based
Protocol: P388 cells obtained from J. Mayo, National Cancer Institute, Bethesda, Md., were maintained in Roswell Park Memorial Institute medium 1640 (RPMI-1640) supplemented with 10% horse serum. All cell lines were cultured in plastic tissue culture flasks and kept in an incubator at 37° C. in humidified air containing 5% CO2. Antibiotic-free stock cultures of P388 cells were subcultured to 10^5 cells/ml by dilution in fresh growth medium at 2-3 day intervals. The means generation time of primary cultures was 14-17 hours.
Solvent for all dilutions was methanol, which was removed from plates under vacuum. All experimental cultures were initiated in medium containing Gentamicin sulfate ([…]; Schering Corporation, Kenilworth, N.J.). […]
To quantitate the effects on cell proliferation, 75 μl of warm growth medium containing 5 mg/ml MTT was added to each well and cultures were returned to the incubator for 90 minutes. To spectophotometrically quantitate formation of reduced formazan, plates were centrifuged (900 xg, 5 minutes), culture fluids removed by aspiration, and 200 μl of acidified isopropanol (2 ml concentrated HCl/liter isopropanol) added per well. The absorbance of the resulting solutions were measured at 570 nm with a plate reader (MR700 Microplate Reader, Dynatech Laboratories, Chantilly, Va.). […]

CV-1 cells = assay: Drug cytotoxicity in the antiviral assay; assay type: cell-based, African green monkey; conditions: anti-HSV-1 assay; ID50 not defined in the text, TI = ID50/ED50
Excerpt: (§1) The antiviral assay for herpes simplex virus type 1 (HSV-1) is a plaque inhibition assay. CV-1 cells (a fibroblast-like cell culture derived from primary African green monkey cells) are infected with the Kos strain of HSV-1 . Cytopathic effects (CPE) of the virus are prevented from rapid spread by a methylcellulose medium. Distinct areas of infected cells or plaques are distinguished from a surrounding area of viable CV-1 cells by staining the culture with neutral red which is a stain taken up by living cells. The viral dose can be quantitated by counting the number of plaques. Compounds with antiviral activity can be identified by comparing the plaque number in the drug treated cells to the HSV-1 viral control.
Confluent cultures of CV-1 cells are rinsed with PBS two times and 4.0 ml trypsin solution is added to 150 cm^2 tissue sulture flask. Cells are dispersed an 10×10^6 CV-1 cells in 40 ml of growth medium are added to new 150 cm^2 flasks. The number of cells added to a cell culture flask is proportional to the area. The cell culture is confluent in 5 to 7 days for use in the antiviral assay. […]
(§2) Discs are placed in wells containing cells, virus, and overlay medium. Plates are incubated at 37° C. for 48 hours, the second overlay medium is added at […] per well, and, after 24 hours additional incubation time, the plates are read. […]

[4] = test system: herpes simplex virus type 1 (HSV-1), Kos strain; assay: HSV-1 plaque inhibition assay in CV-1 cells; assay type: cell-based; conditions: anti-HSV-1 activity
Excerpt: as §1
Twenty-four well plates (16 mm diameter per well) are seeded with 2×10^5 cells per well in 0.5 ml growth medium and incubated at 37°) C. with 5% CO2. The plates are used in 24 to 72 hours. Each well is infected with at least 25 but no more than 80 plaque forming units (PFU) of virus. Plates are incubated for 1.0 hours at 37° C. with 0.2 ml virus. […]
as §2

Row | Compound | % MLR Control ([1]; 2.5 ng/ml) [%] | % MLR Control ([1]; 5.0 ng/ml) [%] | % MLR Control ([1]; 10.0 ng/ml) [%] | % MLR Control ([1]; 20.0 ng/ml) [%] | % MLR Control ([1]; 40.0 ng/ml) [%] | % MLR Control ([1]; 80.0 ng/ml) [%] | % MLR Control ([1]; 160.0 ng/ml) [%] | % MLR Control ([1]; 312.5 ng/ml) [%] | % MLR Control ([1]; 625.0 ng/ml) [%] | % MLR Control ([1]; 1250.0 ng/ml) [%] | % MLR Control ([1]; 2500.0 ng/ml) [%] | % MLR Control ([1]; 5000.0 ng/ml) [%] | % LCV Control ([2]; 2.5 ng/ml) [%] | % LCV Control ([2]; 5.0 ng/ml) [%] | % LCV Control ([2]; 10.0 ng/ml) [%] | % LCV Control ([2]; 20.0 ng/ml) [%] | % LCV Control ([2]; 40.0 ng/ml) [%] | % LCV Control ([2]; 80.0 ng/ml) [%] | % LCV Control ([2]; 160.0 ng/ml) [%] | % LCV Control ([2]; 312.5 ng/ml) [%] | other results
1 | CCCC[C@@H](C)C[C@@H](C)C(=O)N(C)[C@@H](CC(C)C)C(=O)N[C@H](C(=O)N(C)[C@H](C(=O)N1C[C@@H](O)C[C@H]1C(=O)N1C(=O)C=C[C@@H]1C)C(C)C)[C@H](C)OC(C)=O [Microcolin A, microcolin A] | < 1 | < 1 | < 1 | < 1 | < 1 | < 1 | < 1 | < 1 | < 1 | < 1 | < 1 | < 1 | 78 | 71 | 80 | 82 | 60 | 59 | 59 | 48 | % LCV Control ([2]; 625.0 ng/ml): 52%; % LCV Control ([2]; 1250.0 ng/ml): 31%; % LCV Control ([2]; 2500.0 ng/ml): 18%; % LCV Control ([2]; 5000.0 ng/ml): 3%; IC50 [3]: 0.0009 µg/mL (≈ 1.2 nM); ID50 (CV-1 cells): 480 nanograms/ml; ED50 [4]: 2.5 nanograms/ml
2 | microcolin B | 93 | 87 | 80 | 39 | 1 | < 1 | < 1 | < 1 | < 1 | < 1 | < 1 | < 1 | 78 | 121 | 107 | 105 | 97 | 114 | 99 | 110 | % LCV Control ([2]; 625.0 ng/ml): 88%; % LCV Control ([2]; 1250.0 ng/ml): 75%; % LCV Control ([2]; 2500.0 ng/ml): 51%; % LCV Control ([2]; 5000.0 ng/ml): 29%; IC50 [3]: 0.096 µg/mL; ID50 (CV-1 cells): 1185 nanograms/ml; ED50 [4]: 146.0 nanograms/ml
